Consider two molecules from patent US11504383B2, “Crystalline forms of a Ryanodine receptor modulator and uses thereof” (ARMGO Pharma, Inc., priority 2021, dated 2022).

Holding throughout (assay type): physicochemical
The nature of series [1]: Storage stability of the polymorphs followed by XRD. How it is done:
The top panel depicts the polymorph at initiation and the bottom three panels depict the polymorph after 24 months. FIG. 5 Panel A: initial control; FIG. 5 Panel B: sample stored for 2 years in open bottle in stability chambers at 25° C./60% relative humidity (RH); FIG. 5 Panel C: sample stored for 2 years in closed bottle in stability chambers at 40° C./75% RH; FIG. 5 Panel D: sample stored for 2 years in open bottle in stability chambers at 40° C./75% RH.
The top panel depicts the polymorph at initiation and the bottom panels depict the polymorph after 3, 6, 12 and 24 months.

A short description of series [2]: Dynamic vapor sorption (hygroscopicity). The note with it: DVS, 25° C., 0-90% relative humidity. How it is done:
Dynamic vapor sorption (DVS) analysis was performed by measuring mass variation of the crystalline form of 4-[(7-methoxy-2,3-dihydro-1,4-benzothiazepin-4(5H)yl)methyl]benzoic acid hemifumarate as a function of relative humidity using a DVS intrinsic instrument. A 5 mg to 10 mg of a sample of a crystalline form of 4-[(7-methoxy-2,3-dihydro-1,4-benzothiazepin-4(5H)yl)methyl]benzoic acid, hemifumarate was placed into a sample pan of a DVS intrinsic instrument at 25° C. under controlled humidity. The mass variation was recorded as a function of relative humidity.
Measurement of DVS comprised: (a) equilibrating a sample of the crystalline form at 25° C. and 50% relative humidity in a temperature-controlled and humidity controlled chamber until mass variation is less than 0.002% per minute for 6 hours; (b) increasing the relative humidity from 50% to 90% at a rate of 10% per hour; (c) equilibrating the sample at 90% relative humidity until mass variation of less than 0.002% per minute for 6 hours is observed; (d) decreasing the relative humidity from 90% to 0% at a rate of 10% per hour; (e) equilibrating the sample at 0% relative humidity until mass variation of less than 0.002% per minute for 6 hours is observed; and (f) increasing the relative humidity from 0% to 50% at a rate of 10% per hour.

The nature of series [3]: Thermogravimetric analysis (loss of mass before melting/degradation). The note with it: 25° C. to 250° C. at about 10° C./minute. As to the method: Thermogravimetric analysis (TGA) was performed. A 10 to 20 mg of sample of a crystalline form of 4-[(7-methoxy-2,3-dihydro-1,4-benzothiazepin-4(5H)yl)methyl]benzoic acid hemifumarate was placed into an aluminum pan, with nitrogen purge. The sample was equilibrated at 25° C. in a temperature-controlled chamber. The sample was heated at a scan rate of about 10° C./minute to 250° C. under nitrogen purge. A TGA Q5000 thermogravimetric analysis instrument was used.

A short description of series [4]: Competitive slurry experiments mixing Form 1 and Form 2 in various solvents. As to the method:
Competitive slurry experiments were performed at 15° C. (Table 5) or 40° C. (Table 6) by mixing Form 1 and Form 2 in various solvents in acetonitrile/water, acetone/water and methanol/water mixtures. […] (Table 5) or 40° C. (Table 6).

Entries after “also recorded” stand apart in the source; their conditions may differ.

In the case of `COc1ccc2c(c1)CN(Cc1ccc(C(=O)O)cc1)CCS2.O=C(O)/C=C/C(=O)O` [Form 1, 4-[(7-methoxy-2,3-dihydro-1,4-benzothiazepin-4(5H)yl)methyl]benzoic acid, hemifumarate], the “Storage time without any detectable conversion into Form 2” value in series [1] (XRD, FIG. 5) is listed as “at least 24 months”. Also, in series [1] (after 24 months, open bottle 25° C./60% RH, closed bottle 40° C./75% RH, open bottle 40° C./75% RH), the “Stability of the polymorph on storage (XRD, FIG. 5)” value is listed as “stable”. Moreover, the Hygroscopicity entry in series [2] was “slightly hygroscopic; also recorded: non-hygroscopic”. The “Loss of mass before melting degradation (TGA)” value in series [3] is given as “about 1%”.

For `COc1ccc2c(c1)CN(Cc1ccc(C(=O)O)cc1)CCS2.O=C(O)/C=C/C(=O)O` [Form 1 and Form 2], the “XRD (form after competitive slurry)” value in series [4] (15° C. for 10 days, Acetone) was “Form 2”; in series [4] (15° C. for 10 days, Acetone/water 30/70) it was “Form 2”; in series [4] (15° C. for 10 days, Acetone/water 90/10), “Form 2”; in series [4] (15° C. for 10 days, Acetone/water 96/4) it was “Form 2”; in series [4] (15° C. for 10 days, Acetone/water 98/2) it was “Form 2”; in series [4] (15° C. for 10 days, Acetonitrile), “Acetonitrile solvate (Form 4)”. Besides, the “XRD (form after competitive slurry)” value in series [4] (15° C. for 10 days, Acetonitrile/water 15/85) was “Acetonitrile solvate (Form 4)”; in series [4] (15° C. for 10 days, Acetonitrile/water 87/13), “Acetonitrile solvate (Form 4)”; in series [4] (15° C. for 10 days, Acetonitrile/water 94/6) it was “Acetonitrile solvate (Form 4)”; in series [4] (15° C. for 10 days, Acetonitrile/water 98/2) it was “Acetonitrile solvate (Form 4)”; in series [4] (15° C. for 10 days, Methanol), “Methanol solvate (Form 3)”; in series [4] (15° C. for 10 days, Methanol/water 20/80), “Form 2 + Methanol solvate”. The “XRD (form after competitive slurry)” value is reported as “Methanol solvate (Form 3)” in series [4] (15° C. for 10 days, Methanol/water 50/50); “Methanol solvate (Form 3)” in series [4] (15° C. for 10 days, Methanol/water 70/30); “Methanol solvate (Form 3)” in series [4] (15° C. for 10 days, Methanol/water 95/5); “Form 2” in series [4] (15° C. for 10 days, Water); “Form 2” in series [4] (40° C. for 5 days, Acetone); “Form 2” in series [4] (40° C. for 5 days, Acetone/water 30/70). For the same molecule, the “XRD (form after competitive slurry)” value in series [4] (40° C. for 5 days, Acetone/water 90/10) is reported as “Form 2”; in series [4] (40° C. for 5 days, Acetone/water 96/4), “Form 2”; in series [4] (40° C. for 5 days, Acetone/water 98/2), “Form 2”; in series [4] (40° C. for 5 days, Acetonitrile), “Acetonitrile solvate (Form 4)”; in series [4] (40° C. for 5 days, Acetonitrile/water 15/85) it was “Acetonitrile solvate (Form 4)”; in series [4] (40° C. for 5 days, Acetonitrile/water 87/13), “Acetonitrile solvate (Form 4)”. Also, the “XRD (form after competitive slurry)” value in series [4] (40° C. for 5 days, Acetonitrile/water 94/6) was “Acetonitrile solvate (Form 4)”; in series [4] (40° C. for 5 days, Acetonitrile/water 98/2), “Acetonitrile solvate (Form 4)”; in series [4] (40° C. for 5 days, Methanol) it was “Methanol solvate (Form 3)”; in series [4] (40° C. for 5 days, Methanol/water 20/80) it was “Form 2 + Methanol solvate”; in series [4] (40° C. for 5 days, Methanol/water 50/50), “Methanol solvate (Form 3)”; in series [4] (40° C. for 5 days, Methanol/water 70/30), “Methanol solvate (Form 3)”. Besides, the “XRD (form after competitive slurry)” value in series [4] (40° C. for 5 days, Methanol/water 95/5) is recorded as “Methanol solvate (Form 3)”; in series [4] (40° C. for 5 days, Water) it was “Form 2”. The “Form obtained from slurry” value in series [4] (acetone/water mixtures, all tested conditions) was “converted into Form 2”; in series [4] (acetonitrile/water mixtures, all tested ratios, 15° C. or 40° C.), “converted into the acetonitrile solvate (Form 4)”; in series [4] (methanol/water (20/80 v/v)), “a mixture of Form 2 and methanol solvate”; in series [4] (methanol/water mixtures, all tested ratios except 20/80 v/v, 15° C. or 40° C.), “converted into the methanol solvate (Form 3)”.
